The results in this text go back to the Kinase Knowledgebase extract (Sharma et al. 2016).

Each structure is given as a SMILES string.

The IC50 is the concentration that inhibits the measured activity by half. Read a high IC50 as weaker potency.

The target in the assay is MAPK14 (human) (UniProt Q16539). As to the kind of experiment: Enzyme Assay.
MAPK14 (human), sequence (Q16539 whole entry, looked up): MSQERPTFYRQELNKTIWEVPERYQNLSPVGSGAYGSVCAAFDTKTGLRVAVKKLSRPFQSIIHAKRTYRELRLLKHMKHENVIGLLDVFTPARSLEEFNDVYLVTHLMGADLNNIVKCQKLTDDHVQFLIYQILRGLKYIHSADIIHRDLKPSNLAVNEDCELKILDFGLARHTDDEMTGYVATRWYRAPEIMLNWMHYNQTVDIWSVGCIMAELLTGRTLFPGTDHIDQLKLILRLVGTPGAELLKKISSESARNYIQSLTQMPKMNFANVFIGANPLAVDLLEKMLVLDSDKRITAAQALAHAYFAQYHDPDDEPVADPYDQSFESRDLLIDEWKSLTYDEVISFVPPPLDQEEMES
Turning to `C[C@H]1COCCN1c1nnc2ccc(O[C@@H]3CC[C@H](NC(=O)Nc4cc(C(C)(C)C)nn4-c4cccc(OCCN(C)C)c4)c4ccccc43)cn12`, the 50% inhibitory concentration (IC50) was less than 10 nM.
As for `CN1CCC[C@H]1c1nnc2ccc(O[C@@H]3CC[C@H](NC(=O)Nc4cc(C(C)(C)C)nn4-c4cccc(CO)c4)c4ccccc43)cn12`, the figure is less than 10 nM.
With `Cc1ccc(-n2nc(C(C)(C)C)cc2NC(=O)N[C@H]2CC[C@@H](Oc3ccc4nnc([C@]5(CO)CCCN5C)n4c3)c3ccccc32)cc1` the figure was less than 10 nM; with `Cc1ccc(-n2nc(C(C)(C)C)cc2NC(=O)N[C@H]2CC[C@@H](Oc3ccc4nnc(CCN5CCCC5)n4c3)c3ccccc32)cc1`, less than 10 nM.
With `Cc1ccc(-n2nc(C(C)(C)C)cc2NC(=O)N[C@H]2CC[C@@H](Oc3ccc4nnc(N5CCCC[C@H]5C)n4c3)c3ccccc32)cc1` the figure was less than 10 nM.
The compound `C[C@H]1CCCCN1c1nnc2ccc(O[C@@H]3CC[C@H](NC(=O)Nc4cc(C(C)(C)C)nn4-c4cccc(OCCN5CCOCC5)c4)c4ccccc43)cn12` yielded an IC50 of less than 10 nM.
`Cc1ccc(-n2nc(C(C)(C)C)cc2NC(=O)N[C@H]2CC[C@@H](Oc3ccc4nnc([C@@H]5CC(C)(C)CN5C)n4c3)c3ccccc32)cc1` came in with an IC50 of less than 10 nM.
In turn, `C[C@H]1CCCCN1c1nnc2ccc(O[C@@H]3CC[C@H](NC(=O)Nc4cc(C(C)(C)C)on4)c4ccccc43)cn12` yielded a 50% inhibitory concentration (IC50) of less than 10 nM.
With `Cc1ccc(-n2nc(C(C)(C)C)cc2NC(=O)N[C@H]2CC[C@@H](Oc3ccc4nnc(N(C)CCO)n4c3)c3ccccc32)cc1` the figure was less than 10 nM; with `C[C@H]1CCCCN1c1nnc2ccc(O[C@@H]3CC[C@H](NC(=O)Nc4cc(C(C)(C)C)nn4-c4cccc(OCCN5C6CCC5COC6)c4)c4ccccc43)cn12`, less than 10 nM; with `Cc1ccc(-n2nc(C(C)(C)C)cc2NC(=O)N[C@H]2CC[C@@H](Oc3ccc4nnc(N5CCCCCC5)n4c3)c3ccccc32)cc1`, less than 10 nM.
As to `Cc1ccc(-n2nc(C(C)(C)C)cc2NC(=O)N[C@H]2CC[C@@H](Oc3ccc4nnc(C5CCNCC5)n4c3)c3ccccc32)cc1`, the IC50 was less than 10 nM.
With `Cc1ccc(-n2nc(C(C)(C)C)cc2NC(=O)N[C@H]2CC[C@@H](Oc3ccc4nnc(NC(C)C)n4c3)c3ccccc32)cc1` the figure was less than 10 nM; with `C[C@H]1CCCCN1c1nnc2ccc(O[C@@H]3CC[C@H](NC(=O)Nc4cc(C(C)(C)C)nn4-c4ccc(CN5CCCCC5)cc4)c4ccccc43)cn12`, less than 10 nM.
`Cc1ccc(-n2nc(C(C)(C)C)cc2NC(=O)N[C@H]2CC[C@@H](Oc3ccc4nnc(N5CCN(CCO)CC5)n4c3)c3ccccc32)cc1` returned an IC50 of less than 10 nM.
`CN(C)CCn1cnc(-n2nc(C(C)(C)C)cc2NC(=O)N[C@H]2CC[C@@H](Oc3ccc4nnc(N5CCCCC5)n4c3)c3ccccc32)c1`: the IC50 was less than 10 nM.
In turn, `Cc1ccc(-n2nc(C(C)(C)C)cc2NC(=O)N[C@H]2CC[C@@H](Oc3ccc4nnc(N)n4c3)c3ccccc32)cc1` returned an IC50 of less than 10 nM.
With `CC(C)(C)c1cc(NC(=O)N[C@H]2CC[C@@H](Oc3ccc4nnc(N5CCCCC5)n4c3)c3ccccc32)n(-c2cccc(COCCO)c2)n1` the figure was less than 10 nM.
With `Cc1ccc(-n2nc(C(C)(C)C)cc2NC(=O)N[C@H]2CC[C@@H](Oc3ccc4nnc([C@@H]5CCCCN5C)n4c3)c3ccccc32)cc1` the figure was less than 10 nM.
As for `C[C@H]1CCCCN1c1nnc2ccc(O[C@@H]3CC[C@H](NC(=O)Nc4cc(C(C)(C)C)nn4-c4cccc(CCN5CCOCC5)c4)c4ccccc43)cn12`, the figure is less than 10 nM.
Turning to `CCOC(=O)c1cccc(-n2nc(C(C)(C)C)cc2NC(=O)N[C@H]2CC[C@@H](Oc3ccc4nnc([C@@H]5CCCN5C)n4c3)c3ccccc32)c1`, the IC50 is less than 10 nM.
As for `C[C@H]1CCCCN1c1nnc2ccc(O[C@@H]3CC[C@H](NC(=O)Nc4cc(C(C)(C)C)nn4-c4cccc(OCCN5CCCC5)c4)c4ccccc43)cn12`, the figure is less than 10 nM; as for `C[C@H]1CCCCN1c1nnc2ccc(O[C@@H]3CC[C@H](NC(=O)Nc4cc(C(C)(C)C)nn4-c4ccnc(N(C)CCN(C)C)n4)c4ccccc43)cn12`, less than 10 nM; as for `CC(C)(C)c1cc(NC(=O)N[C@H]2CC[C@@H](Oc3ccc4nnc(N5CCCCC5)n4c3)c3ccccc32)n(-c2cccc(CN3CCC(O)CC3)c2)n1`, less than 10 nM.
With `C[C@@H]1CCC[C@H](C)N1c1nnc2ccc(O[C@@H]3CC[C@H](NC(=O)Nc4cc(C(C)(C)C)nn4-c4cccc(CN5CCCC5)c4)c4ccccc43)cn12` the figure was less than 10 nM; with `Cc1ccc(-n2nc(C(C)(C)C)cc2NC(=O)N[C@H]2CC[C@@H](Oc3ccc4nnc(N5CCC[C@H](O)C5)n4c3)c3ccccc32)cc1`, less than 10 nM; with `Cc1ccc(-n2nc(C(C)(C)C)cc2NC(=O)N[C@H]2CC[C@@H](Oc3ccc4nnc(CC5CCN(C)CC5)n4c3)c3ccccc32)cc1`, less than 10 nM.
In turn, `Cc1ccc(-n2nc(C(C)(C)C)cc2NC(=O)N[C@H]2CC[C@@H](Oc3ccc4nnc(N5CCC(CCO)CC5)n4c3)c3ccccc32)cc1` showed an IC50 of less than 10 nM.
As for `Cc1ccc(-n2nc(C(C)(C)C)cc2NC(=O)N[C@H]2CC[C@@H](Oc3ccc4nnc(C5(N(C)C)CCCC5)n4c3)c3ccccc32)cc1`, the figure is less than 10 nM; as for `C[C@@H]1CCC[C@H](C)N1c1nnc2ccc(O[C@@H]3CC[C@H](NC(=O)Nc4cc(C(C)(C)C)nn4CCO)c4ccccc43)cn12`, less than 10 nM.
Compound `Cc1ccc(-n2nc(C(C)(C)C)cc2NC(=O)N[C@H]2CC[C@@H](Oc3ccc4nnc(N5CCC(C(C)(C)O)CC5)n4c3)c3ccccc32)cc1` yielded an IC50 of less than 10 nM.
`Cc1ccc(-n2nc(C(C)(C)CO)cc2NC(=O)N[C@H]2CC[C@@H](Oc3ccc4nnc(N5CCCCC5)n4c3)c3ccccc32)cc1` registered an IC50 of less than 10 nM.
`Cc1ccc(-n2nc(C(C)(C)C)cc2NC(=O)N[C@H]2CC[C@@H](Oc3ccc4nnc(N5CCC(C)(O)CC5)n4c3)c3ccccc32)cc1` returned an IC50 of less than 10 nM.
With `Cc1ccc(-n2nc(C(C)(C)C)cc2NC(=O)N[C@H]2CC[C@@H](Oc3ccc4nnc(N5CCC(CO)CC5)n4c3)c3ccccc32)cc1` the figure was less than 10 nM; with `Cc1ccc(-n2nc(C(C)(C)C)cc2NC(=O)N[C@H]2CC[C@@H](Oc3ccc4nnc(N5CCC[C@H]5CO)n4c3)c3ccccc32)cc1`, less than 10 nM.
With `C[C@H]1CCCCN1c1nnc2ccc(O[C@@H]3CC[C@H](NC(=O)Nc4cc(C(C)(C)C)nn4-c4cccc(OCCN5CCN(C)CC5)c4)c4ccccc43)cn12` the figure was less than 10 nM; with `Cc1ccc(-n2nc(C(C)(C)C)cc2NC(=O)N[C@H]2CC[C@@H](Oc3ccc4nnc(N5CC[C@@H](CO)C5)n4c3)c3ccccc32)cc1`, less than 10 nM.
As to `C[C@H]1CCCCN1c1nnc2ccc(O[C@@H]3CC[C@H](NC(=O)Nc4cc(C(C)(C)C)nn4-c4cccc(CCN5CCCCC5)c4)c4ccccc43)cn12`, the IC50 is less than 10 nM.
With `Cc1ccc(-n2nc(C(C)(C)C)cc2NC(=O)N[C@H]2CC[C@@H](Oc3ccc4nnc(N5CCCCC5)n4c3)c3ccccc32)cc1` the figure was less than 10 nM; with `Cc1ccc(-n2nc(C(C)(C)C)cc2NC(=O)N[C@H]2CC[C@@H](Oc3ccc4nnc(CN5CCNCC5)n4c3)c3ccccc32)cc1`, less than 10 nM.
Compound `Cc1ccc(-n2nc(C(C)(C)C)cc2NC(=O)N[C@H]2CC[C@@H](Oc3ccc4nnc([C@]5(C)CCCN5C)n4c3)c3ccccc32)cc1` registered an IC50 of less than 10 nM.
With `C[C@H]1CCCCN1c1nnc2ccc(O[C@@H]3CC[C@H](NC(=O)Nc4cc(C(C)(C)C)nn4-c4cccc(CN5CCN(C)CC5)c4)c4ccccc43)cn12` the figure was less than 10 nM; with `C[C@@H]1CCC[C@H](C)N1c1nnc2ccc(O[C@@H]3CC[C@H](NC(=O)Nc4cc(F)cc(N5CCOCC5)c4)c4ccccc43)cn12`, less than 10 nM; with `Cc1ccc(-n2nc(C(C)(C)C)cc2NC(=O)N[C@H]2CC[C@@H](Oc3ccc4nnc(CC5CCN(CC(F)F)CC5)n4c3)c3ccccc32)cc1`, less than 10 nM.
With `CN(C)CCOc1cccc(-n2nc(C(C)(C)C)cc2NC(=O)N[C@H]2CC[C@@H](Oc3ccc4nnc(N5CC6CCC(C6)C5)n4c3)c3ccccc32)c1` the figure was less than 10 nM; with `Cc1ccc(-n2nc(C(C)(C)C)cc2NC(=O)N[C@H]2CC[C@@H](Oc3ccc4nnc([C@@H]5C[C@@H](F)CN5C)n4c3)c3ccccc32)cc1`, less than 10 nM; with `COC1CCN(Cc2cccc(-n3nc(C(C)(C)C)cc3NC(=O)N[C@H]3CC[C@@H](Oc4ccc5nnc(N6CCCC[C@@H]6C)n5c4)c4ccccc43)c2)CC1`, less than 10 nM.
As for `Cc1ccc(-n2nc(C(C)(C)C)cc2NC(=O)N[C@H]2CC[C@@H](Oc3ccc4nnc(-c5ccc(CN6CCOCC6)nc5)n4c3)c3ccccc32)cc1`, the figure is 10 to 100 nM.
As to `CC(C)(C)c1cc(NC(=O)N[C@H]2CC[C@@H](Oc3ccc4nnc(N5CCCCC5)n4c3)c3ccccc32)n(-c2ccc(C#N)cc2)n1`, the IC50 is less than 10 nM.
As for `CN1CCN(Cc2ccc(-n3nc(C(C)(C)C)cc3NC(=O)N[C@H]3CC[C@@H](Oc4ccc5nnc(N6CCCCC6)n5c4)c4ccccc43)cc2)CC1`, the figure is less than 10 nM.
As for `CCN(C)CCc1cccc(-n2nc(C(C)(C)C)cc2NC(=O)N[C@H]2CC[C@@H](Oc3ccc4nnc(N5CCCC[C@@H]5C)n4c3)c3ccccc32)c1`, the figure is less than 10 nM.
With `C[C@H]1CCCCN1c1nnc2ccc(O[C@@H]3CC[C@H](NC(=O)Nc4cc(C(C)(C)C)nn4-c4cccc(OCCN(C)C)c4)c4ccccc43)cn12` the figure was less than 10 nM; with `C[C@@H]1CCCCN1c1nnc2ccc(O[C@@H]3CC[C@H](NC(=O)Nc4cc(C(C)(C)C)nn4-c4cccc(OCCN(C)C)c4)c4ccccc43)cn12`, less than 10 nM; with `Cc1ccc(-n2nc(C(C)(C)C)cc2NC(=O)N[C@H]2CC[C@@H](Oc3ccc4nnc(N5CCCCC5)n4c3)c3ccccc32)cn1`, less than 10 nM.
Consider `C[C@H]1CCCCN1c1nnc2ccc(O[C@@H]3CC[C@H](NC(=O)Nc4cc(C(C)(C)C)nn4-c4cccc(CCN5CCCN(C)CC5)c4)c4ccccc43)cn12`, for which the IC50 is less than 10 nM.
With `CN1CCCC[C@H]1c1nnc2ccc(O[C@@H]3CC[C@H](NC(=O)Nc4cc(C(C)(C)C)nn4CCO)c4ccccc43)cn12` the figure was less than 10 nM; with `Cc1ccc(-n2nc(C(C)(C)C)cc2NC(=O)N[C@H]2CC[C@@H](Oc3ccc4nnc(C5CN(C)CCN5C)n4c3)c3ccccc32)cc1` (stereo partly drawn), less than 10 nM.
With `CC(C)(C)c1cc(NC(=O)N[C@H]2CC[C@@H](Oc3ccc4nnc(N5CCCCC5)n4c3)c3ccccc32)n(-c2cnn(CCCN3CCOCC3)c2)n1` the figure was less than 10 nM.
